Results: patent US20240245682A1, “ALPHA-V-BETA-8 INTEGRIN INHIBITORS AND USES THEREOF” (Pliant Therapeutics, Inc., priority 2022, published 2024)

Legend:
Assay in all cases: AlphaScreen proximity-based integrin binding assay with TGF-b1 LAP
Conditions in all cases: values given as ranges
human integrin αVβ6 = human integrin αVβ6 (Homo sapiens, UniProt P06756+P18564)
Outline: (§1)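 Purified human integrin incubated with compound, TGF-b1 LAP, biotinylated anti-LAP antibody and acceptor beads for 2 h, then streptavidin donor beads 30 min, room temperature, in 50 mM Tris-HCl pH 7.5, 0.1% BSA, 1 mM CaCl2/MgCl2. AlphaScreen signal (680 nm excitation, 520-620 nm emission); IC50 by four-parameter fit.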

human integrin αVβ8 = human integrin αVβ8 (Homo sapiens, UniProt P06756+P26012)
Chain of human integrin αVβ8 (P06756 31-992 limits assumed): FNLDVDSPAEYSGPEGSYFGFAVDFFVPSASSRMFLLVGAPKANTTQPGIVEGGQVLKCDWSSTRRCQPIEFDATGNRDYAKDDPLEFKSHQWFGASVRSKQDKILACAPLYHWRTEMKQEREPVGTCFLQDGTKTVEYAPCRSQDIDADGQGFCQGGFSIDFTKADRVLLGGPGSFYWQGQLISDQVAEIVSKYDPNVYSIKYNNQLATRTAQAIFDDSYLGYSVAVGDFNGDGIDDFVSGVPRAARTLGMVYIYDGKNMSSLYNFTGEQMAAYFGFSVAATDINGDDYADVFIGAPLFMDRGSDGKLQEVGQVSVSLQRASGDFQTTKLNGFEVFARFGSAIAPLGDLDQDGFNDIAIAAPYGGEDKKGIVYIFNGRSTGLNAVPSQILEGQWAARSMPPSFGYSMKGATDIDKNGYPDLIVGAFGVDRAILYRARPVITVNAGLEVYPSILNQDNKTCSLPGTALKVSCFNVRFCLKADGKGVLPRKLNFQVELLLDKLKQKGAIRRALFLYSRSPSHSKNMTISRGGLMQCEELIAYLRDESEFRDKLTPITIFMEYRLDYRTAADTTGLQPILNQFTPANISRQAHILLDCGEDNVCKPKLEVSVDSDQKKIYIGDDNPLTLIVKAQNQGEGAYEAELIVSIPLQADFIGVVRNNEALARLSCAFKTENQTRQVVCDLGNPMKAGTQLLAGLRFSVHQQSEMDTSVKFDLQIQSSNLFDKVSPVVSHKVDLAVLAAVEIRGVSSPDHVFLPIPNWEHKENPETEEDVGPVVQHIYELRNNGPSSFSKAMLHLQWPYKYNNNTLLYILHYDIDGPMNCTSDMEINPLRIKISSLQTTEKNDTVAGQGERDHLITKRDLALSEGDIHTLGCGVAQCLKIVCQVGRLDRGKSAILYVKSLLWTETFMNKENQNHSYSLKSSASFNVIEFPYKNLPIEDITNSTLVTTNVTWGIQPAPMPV
Chain of human integrin αVβ8 (P26012 43-684 limits assumed): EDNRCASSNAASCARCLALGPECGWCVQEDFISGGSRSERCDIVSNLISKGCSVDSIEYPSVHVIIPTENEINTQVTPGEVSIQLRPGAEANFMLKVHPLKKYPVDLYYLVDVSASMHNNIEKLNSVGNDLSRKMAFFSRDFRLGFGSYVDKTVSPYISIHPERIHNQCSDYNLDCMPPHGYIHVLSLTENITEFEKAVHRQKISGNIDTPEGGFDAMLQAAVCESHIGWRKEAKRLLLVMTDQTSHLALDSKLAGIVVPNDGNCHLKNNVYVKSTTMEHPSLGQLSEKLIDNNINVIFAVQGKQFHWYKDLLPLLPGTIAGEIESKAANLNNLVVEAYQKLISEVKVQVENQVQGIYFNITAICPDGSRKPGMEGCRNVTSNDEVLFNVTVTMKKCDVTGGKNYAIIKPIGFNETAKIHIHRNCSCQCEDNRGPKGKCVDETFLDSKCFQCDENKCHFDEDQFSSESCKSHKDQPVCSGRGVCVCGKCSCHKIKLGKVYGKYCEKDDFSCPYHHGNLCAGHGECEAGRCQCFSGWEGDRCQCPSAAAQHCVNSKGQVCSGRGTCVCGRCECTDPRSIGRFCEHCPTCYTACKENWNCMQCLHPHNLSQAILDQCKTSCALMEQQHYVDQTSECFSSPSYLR
Outline: as §1

human integrin αVβ1 = human integrin αVβ1 (Homo sapiens, UniProt P05556+P06756)
Chain of human integrin αVβ1 (P06756 31-992 limits assumed): as the sequence (P06756 31-992 limits assumed) above
Chain of human integrin αVβ1 (P05556 21-728 limits assumed): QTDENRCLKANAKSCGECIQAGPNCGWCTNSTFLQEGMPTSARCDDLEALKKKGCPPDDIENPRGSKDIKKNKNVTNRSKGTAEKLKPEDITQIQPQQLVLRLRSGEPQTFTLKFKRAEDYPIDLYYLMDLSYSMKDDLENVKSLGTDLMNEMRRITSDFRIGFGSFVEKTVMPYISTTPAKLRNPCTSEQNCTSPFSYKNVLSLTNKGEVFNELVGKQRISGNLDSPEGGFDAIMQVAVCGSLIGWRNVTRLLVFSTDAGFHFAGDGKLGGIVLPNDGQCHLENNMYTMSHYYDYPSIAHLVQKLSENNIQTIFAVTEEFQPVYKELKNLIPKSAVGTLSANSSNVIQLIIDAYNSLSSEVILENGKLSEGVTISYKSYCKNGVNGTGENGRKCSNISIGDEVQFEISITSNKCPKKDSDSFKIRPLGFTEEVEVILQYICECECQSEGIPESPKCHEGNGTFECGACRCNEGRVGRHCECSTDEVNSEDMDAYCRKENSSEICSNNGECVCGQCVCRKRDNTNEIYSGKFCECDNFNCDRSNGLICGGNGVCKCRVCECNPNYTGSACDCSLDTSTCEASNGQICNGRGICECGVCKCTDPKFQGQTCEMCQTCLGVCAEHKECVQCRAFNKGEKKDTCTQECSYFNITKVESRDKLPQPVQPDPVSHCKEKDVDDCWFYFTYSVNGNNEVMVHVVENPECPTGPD
Outline: as §1

Chain of human integrin αVβ6 (P06756 31-992 limits assumed): as the sequence (P06756 31-992 limits assumed) above
Chain of human integrin αVβ6 (P18564 22-707 limits assumed): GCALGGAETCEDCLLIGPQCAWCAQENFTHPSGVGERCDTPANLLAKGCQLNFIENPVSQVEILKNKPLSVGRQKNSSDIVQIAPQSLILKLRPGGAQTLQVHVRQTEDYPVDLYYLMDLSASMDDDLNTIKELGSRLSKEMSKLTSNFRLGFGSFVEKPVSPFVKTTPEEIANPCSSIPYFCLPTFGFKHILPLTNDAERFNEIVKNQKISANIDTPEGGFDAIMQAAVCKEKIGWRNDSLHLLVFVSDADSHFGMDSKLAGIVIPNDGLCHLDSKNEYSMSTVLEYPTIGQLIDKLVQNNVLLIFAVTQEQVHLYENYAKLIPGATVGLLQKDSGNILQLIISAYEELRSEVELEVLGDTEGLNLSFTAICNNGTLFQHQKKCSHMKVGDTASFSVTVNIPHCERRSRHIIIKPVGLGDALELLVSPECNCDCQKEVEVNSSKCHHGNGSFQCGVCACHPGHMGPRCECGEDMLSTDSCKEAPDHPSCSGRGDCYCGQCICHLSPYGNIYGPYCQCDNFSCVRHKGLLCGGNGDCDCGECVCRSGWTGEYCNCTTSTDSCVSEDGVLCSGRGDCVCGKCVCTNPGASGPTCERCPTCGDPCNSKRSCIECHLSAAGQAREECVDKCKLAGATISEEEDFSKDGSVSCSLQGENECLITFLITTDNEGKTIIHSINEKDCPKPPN

Compound | IC50 (human integrin αVβ6) | IC50 (human integrin αVβ8) | IC50 (human integrin αVβ1)
O=C(O)[C@H](CCOCCCCc1ccc2c(n1)NCCC2)NC(=O)C1(C(F)(F)F)CCCCC1 [Compound 84, O-(4-(5,6,7,8-tetrahydro-1,8-naphthyridin-2-yl)butyl)-N-(1-(trifluoromethyl)cyclohexane-1-carbonyl)-L-homoserine] | 250 to 500 nM | < 50 nM | < 50 nM
O=C(O)[C@H](CCOCCCCc1ccc2c(n1)NCCC2)NC(=O)C1(C(F)(F)F)CCOCC1 [Compound 100, O-(4-(5,6,7,8-tetrahydro-1,8-naphthyridin-2-yl)butyl)-N-(4-(trifluoromethyl)tetrahydro-2H-pyran-4-carbonyl)-L-homoserine] | 50 to 150 nM | < 50 nM | < 50 nM
O=C(O)[C@H](CCOCCCCc1ccc2c(n1)NCCC2)NC(=O)C1(c2ncccc2Cl)CC1 [Compound 15, N-(1-(3-chloropyridin-2-yl)cyclopropane-1-carbonyl)-O-(4-(5,6,7,8-tetrahydro-1,8-naphthyridin-2-yl)butyl)-L-homoserine] | ≥ 500 nM | < 50 nM | < 50 nM
COc1cccnc1C1(C(=O)N[C@@H](CCOCCCCc2ccc3c(n2)NCCC3)C(=O)O)CC1 [Compound 30, N-(1-(3-methoxypyridin-2-yl)cyclopropane-1-carbonyl)-O-(4-(5,6,7,8-tetrahydro-1,8-naphthyridin-2-yl)butyl)-L-homoserine] | ≥ 500 nM | 50 to 150 nM | 50 to 150 nM
Cn1nccc1C1(C(=O)N[C@@H](CCOCCCCc2ccc3c(n2)NCCC3)C(=O)O)CC1 [Compound 54, N-(1-(1-methyl-1H-pyrazol-5-yl)cyclopropane-1-carbonyl)-O-(4-(5,6,7,8-tetrahydro-1,8-naphthyridin-2-yl)butyl)-L-homoserine] | ≥ 500 nM | 50 to 150 nM | < 50 nM
Cc1ncnc(O)c1C1(C(=O)N[C@@H](CCOCCCCc2ccc3c(n2)NCCC3)C(=O)O)CC1 [Compound 102, N-(1-(4-hydroxy-6-methylpyrimidin-5-yl)cyclopropane-1-carbonyl)-O-(4-(5,6,7,8-tetrahydro-1,8-naphthyridin-2-yl)butyl)-L-homoserine] | > 500 nM | 50 to 150 nM | 50 to 150 nM
CC(C)(C(=O)N[C@@H](CCOCCCCc1ccc2c(n1)NCCC2)C(=O)O)c1ccccc1 [Compound 2, N-(2-methyl-2-phenylpropanoyl)-O-(4-(5,6,7,8-tetrahydro-1,8-naphthyridin-2-yl)butyl)-L-homoserine] | ≥ 500 nM | 50 to 150 nM | < 50 nM
O=C(O)[C@H](CCOCCCCc1ccc2c(n1)NCCC2)NC(=O)C1(c2[nH]cnc2Cl)CC1 [Compound 79, N-(1-(4-chloro-1H-imidazol-5-yl)cyclopropane-1-carbonyl)-O-(4-(5,6,7,8-tetrahydro-1,8-naphthyridin-2-yl)butyl)-L-homoserine] | ≥ 500 nM | < 50 nM | < 50 nM
O=C(O)[C@H](CCOCCCCc1ccc2c(n1)NCCC2)NC(=O)C1(n2nc(Cl)cc2Cl)CC1 [Compound 69, N-(1-(3,5-dichloro-1H-pyrazol-1-yl)cyclopropane-1-carbonyl)-O-(4-(5,6,7,8-tetrahydro-1,8-naphthyridin-2-yl)butyl)-L-homoserine] | 250 to 500 nM | < 50 nM | < 50 nM
COc1ncccc1C1(C(=O)N[C@@H](CCOCCCCc2ccc3c(n2)NCCC3)C(=O)O)CC1 [Compound 35, N-(1-(2-methoxypyridin-3-yl)cyclopropane-1-carbonyl)-O-(4-(5,6,7,8-tetrahydro-1,8-naphthyridin-2-yl)butyl)-L-homoserine] | ≥ 500 nM | 50 to 150 nM | 50 to 150 nM
O=C(O)[C@H](CCOCCCCc1ccc2c(n1)NCCC2)NC(=O)C1(c2cncnc2C(F)(F)F)CC1 [Compound 48, O-(4-(5,6,7,8-tetrahydro-1,8-naphthyridin-2-yl)butyl)-N-(1-(4-(trifluoromethyl)pyrimidin-5-yl)cyclopropane-1-carbonyl)-L-homoserine] | ≥ 500 nM | < 50 nM | < 50 nM
Cc1ncc(Cl)c(C2(C(=O)N[C@@H](CCOCCCCc3ccc4c(n3)NCCC4)C(=O)O)CC2)n1 [Compound 73, N-(1-(5-chloro-2-methylpyrimidin-4-yl)cyclopropane-1-carbonyl)-O-(4-(5,6,7,8-tetrahydro-1,8-naphthyridin-2-yl)butyl)-L-homoserine] | ≥ 500 nM | < 50 nM | < 50 nM
O=C(O)[C@H](CCOCCCCc1ccc2c(n1)NCCC2)NC(=O)C1(n2c(Br)cccc2=O)CC1 [Compound 94, N-(1-(6-bromo-2-oxopyridin-1(2H)-yl)cyclopropane-1-carbonyl)-O-(4-(5,6,7,8-tetrahydro-1,8-naphthyridin-2-yl)butyl)-L-homoserine] | > 500 nM | < 50 nM | < 50 nM
COc1cncc(Cl)c1C1(C(=O)N[C@@H](CCOCCCCc2ccc3c(n2)NCCC3)C(=O)O)CC1 [Compound 34, N-(1-(3-chloro-5-methoxypyridin-4-yl)cyclopropane-1-carbonyl)-O-(4-(5,6,7,8-tetrahydro-1,8-naphthyridin-2-yl)butyl)-L-homoserine] | ≥ 500 nM | < 50 nM | < 50 nM
O=C(O)[C@H](CCOCCCCc1ccc2c(n1)NCCC2)NC(=O)C1(c2cccc(C(F)(F)F)c2)CCOCC1 [Compound 86, O-(4-(5,6,7,8-tetrahydro-1,8-naphthyridin-2-yl)butyl)-N-(4-(3-(trifluoromethyl)phenyl)tetrahydro-2H-pyran-4-carbonyl)-L-homoserine] | > 500 nM | < 50 nM | < 50 nM
N#Cc1ccccc1C1(C(=O)N[C@@H](CCOCCCCc2ccc3c(n2)NCCC3)C(=O)O)CC1 [Compound 45, N-(1-(2-cyanophenyl)cyclopropane-1-carbonyl)-O-(4-(5,6,7,8-tetrahydro-1,8-naphthyridin-2-yl)butyl)-L-homoserine] | ≥ 500 nM | 50 to 150 nM | < 50 nM
O=C(O)[C@H](CCOCCCCc1ccc2c(n1)NCCC2)NC(=O)C1(c2c(Cl)nc[nH]c2=O)CC1 [Compound 63, N-(1-(4-chloro-6-oxo-1,6-dihydropyrimidin-5-yl)cyclopropane-1-carbonyl)-O-(4-(5,6,7,8-tetrahydro-1,8-naphthyridin-2-yl)butyl)-L-homoserine] | ≥ 500 nM | 50 to 150 nM | 150 to 250 nM
CC(C)(C(=O)NC(CCOCCCCc1ccc2c(n1)NCCC2)C(=O)O)c1ccccc1 (stereo not drawn) [Compound 1, N-(2-methyl-2-phenylpropanoyl)-O-(4-(5,6,7,8-tetrahydro-1,8-naphthyridin-2-yl)butyl)homoserine] | ≥ 500 nM | 50 to 150 nM | < 50 nM
N#Cc1c[nH]nc1C1(C(=O)N[C@@H](CCOCCCCc2ccc3c(n2)NCCC3)C(=O)O)CC1 [Compound 78, N-(1-(4-cyano-1H-pyrazol-3-yl)cyclopropane-1-carbonyl)-O-(4-(5,6,7,8-tetrahydro-1,8-naphthyridin-2-yl)butyl)-L-homoserine] | ≥ 500 nM | < 50 nM | < 50 nM
COc1ncc(F)cc1C1(C(=O)N[C@@H](CCOCCCCc2ccc3c(n2)NCCC3)C(=O)O)CC1 [Compound 33, N-(1-(5-fluoro-2-methoxypyridin-3-yl)cyclopropane-1-carbonyl)-O-(4-(5,6,7,8-tetrahydro-1,8-naphthyridin-2-yl)butyl)-L-homoserine] | ≥ 500 nM | < 50 nM | < 50 nM
O=C(O)[C@H](CCOCCCCc1ccc2c(n1)NCCC2)NC(=O)C1(c2ncsc2Cl)CC1 [Compound 82, N-(1-(5-chlorothiazol-4-yl)cyclopropane-1-carbonyl)-O-(4-(5,6,7,8-tetrahydro-1,8-naphthyridin-2-yl)butyl)-L-homoserine] | ≥ 500 nM | < 50 nM | < 50 nM
N#Cc1cc(F)ccc1C1(C(=O)N[C@@H](CCOCCCCc2ccc3c(n2)NCCC3)C(=O)O)CC1 [Compound 43, N-(1-(2-cyano-4-fluorophenyl)cyclopropane-1-carbonyl)-O-(4-(5,6,7,8-tetrahydro-1,8-naphthyridin-2-yl)butyl)-L-homoserine] | ≥ 500 nM | < 50 nM | < 50 nM
